Assay results taken from patent US20060165827A1, “Anti diarrhoea compositions” (Loders Croklaan USA LLC, priority 2002, published 2006).

What was measured:
growing piglets = test: Growth, food intake and food conversion of weaned piglets on supplemented feed; type: in vivo, pig
Text: (§1) Evaluate the effect of supplementation with shea sterols on growth and post-weaning diarrhoea of growing piglets.
(§2) One day before the start of the experiment the pigs are weighed. The piglets are distributed over the different treatment groups with the aim to establish group equality in weight, sex. Piglets smaller than 5 kg or piglets with physical disturbances are excluded from the study.
(§3) At a mean age of 27 days the pigs are weaned and randomly assigned to the 3 experimental groups and are then treated for 35 days. Pigs are fed ad libitum. The first 14 days post weaning the pigs are fed a prestarter diet. Subsequently, the piglets are changed in a period of 3 days to a starter diet. Throughout the 35 day study period the food is supplemented with either:
(§4) 1. without antimicrobial growth enhancers
(§5) 2. with antimicrobial growth enhancers (AMGB: 40 ppm avilamycine)
(§6) 3. with shea oleine (0.4%)
(§7) The shea oleine contained 8 wt % sterols and pentacyclic terpenes. The shea oleine was obtained by fractionation of the extract from shea nuts into a stearine and oleine fraction, followed by partial bleaching and deodorising.
Piglets were weighed at the start of the experiment, at 14 days and at day 34.

[1] = tested on: post-weaning diarrhoea of growing piglets; test: Incidence of post-weaning diarrhoea in weaned piglets on supplemented feed; type: in vivo, pig
Text: as §1, §2, §3, §4, §5, §6, §7

[2] = from weaning till 14 days post weaning
[3] = from weaning till 14 days post weaning, p < 0.001

Work on avilamycine [AMGB] yielded an EW-conversion (growing piglets; from day 1 till day 34) of 1.64, an EW-intake per day (growing piglets; from day 1 till day 34) of 0.57 and a food conversion (growing piglets; from day 1 till day 34) of 1.49. For the same substance, the food intake (growing piglets; from day 1 till day 34) was 0.52 kg/day, the growth rate (growing piglets; from day 1 till day 34) was 352 g/day and the weight (growing piglets; from day 1 till day 34) was 20.9 kg. The EW-conversion (growing piglets; from day 15 till day 34) was 1.70, the EW-intake per day (growing piglets; from day 15 till day 34) was 0.79 and the food conversion (growing piglets; from day 15 till day 34) was 1.55. The food intake (growing piglets; from day 15 till day 34) was 0.72 kg/day, the growth rate (growing piglets; from day 15 till day 34) was 468 g/day and the weight (growing piglets; from day 15 till day 34) was 10.5 kg. The EW-conversion (growing piglets; [2]) was 1.43, the food conversion (growing piglets; [2]) was 1.28 and the growth rate (growing piglets; [2]) was 185 g/day. The EW-intake per day (growing piglets; [3]) was 0.26, the food intake (growing piglets; [3]) was 0.23 kg/day and the weight at weaning (growing piglets; piglets, at weaning (start of experiment)) was 7.7 kg. For the same substance, the “Incidence of diarrhoea: no diarrhoea” value ([1]; First week post-weaning) was 81.2%, the “Incidence of diarrhoea: past (paste-like) diarrhoea” value (“Incidence of diarrhoea: past” for short) ([1]; First week post-weaning) was 17.6% and the “Incidence of diarrhoea: watery diarrhoea” value ([1]; First week post-weaning) was 1.2%. The “Incidence of diarrhoea: past” value ([1]; Second week post-weaning) was 9.5%, the “Incidence of diarrhoea: watery diarrhoea” value ([1]; Second week post-weaning) was 0.2% and the “Incidence of diarrhoea: no diarrhoea” value ([1]; Second week post-weaning, p < 0.1) was 90.3%. For the same substance, the “Incidence of diarrhoea: past” value ([1]; Third week post-weaning) was 9.0%, the “Incidence of diarrhoea: watery diarrhoea” value ([1]; Third week post-weaning) was 0.5% and the “Incidence of diarrhoea: no diarrhoea” value ([1]; Third week post-weaning, p < 0.01) was 90.5%. For the same substance, the “number of animals required treatment” value ([1]; veterinary treatment during the study) was 23.
